# Source: ChEMBL document CHEMBL5661943, “ASAP - In vitro antiviral effect” (2024)
# “And” between values parts separate entries of the source, which are not always exact repeats. Identical values can stand only once.
# Experiments:
# dengue virus type 2 [1] = assay: Functional CPE-based assay to measure dose dependent changes in antiviral-drug inhibitory efficacy against Dengue virus type 2 New Guinea C in Huh7 cells. Cells are treated with antiviral candidates that are serially diluted. EC50 is reported via analysis of MTT/MTS assay as a readout of CPE. The assay has been performed by National Institute of Allergy and Infectious Diseases.; type: organism-based, Homo sapiens; conditions: Huh-7
# Zika virus [2] = assay: EC50 is reported via analysis of immunofluorescence staining. The assay has been performed by Icahn School of Medicine at Mount Sinai.; type: functional, organism-based, Chlorocebus sabaeus, VeroE6/TMPRSS2
# dengue virus type 2 [3] = assay: (§1) Functional immunofluorescence assay to measure dose dependent changes in antiviral-drug inhibitory efficacy against Dengue virus type 2 Thailand/16681/84 in Vero E6/TMPRSS2 cells (cotreated with P-gp inhibitor, Elacridar). Cells are treated with antiviral candidates that are serially diluted, following infection, cells are fixed. EC50 is reported via analysis of immunofluorescence staining. The assay has been performed by Icahn School of Medicine at Mount Sinai.; type: organism-based, Chlorocebus sabaeus, VeroE6/TMPRSS2
# dengue virus type 2 [4] = assay: as §1, with “cells.” for “cells (cotreated with P-gp inhibitor, Elacridar).”; type: organism-based, Chlorocebus sabaeus; conditions: for EC50: VeroE6/TMPRSS2
# Zika virus [5] = assay: as §1, with “Zika” for “Dengue”, “PRVABC59” for “type 2 Thailand/16681/84”, “cells.” for “cells (cotreated with P-gp inhibitor, Elacridar).”; type: organism-based, Chlorocebus sabaeus
# Zika virus [6] = assay: (§2) Functional CPE-based assay to measure dose dependent changes in antiviral-drug inhibitory efficacy against Zika virus MR766 in Vero E6 miRFP670 cells. Cells are treated with antiviral candidates that are serially diluted. EC50 is reported via analysis of MTS assay as a readout of CPE. The assay has been performed by KU Leuven.; type: organism-based, Chlorocebus sabaeus, Vero C1008; conditions: Zika virus
# dengue virus type 2 [7] = assay: Functional assay to measure dose dependent changes in antiviral-drug inhibitory efficacy against Dengue virus type 2 New Guinea C in Vero E6 miRFP670 cells (cotreated with P-gp inhibitor, CP100356). Cells are treated with antiviral candidates that are serially diluted, following infection, cells are fixed. EC50 is reported via analysis of fluorescence intensity using high-content imager. The …; type: organism-based, Chlorocebus sabaeus, Vero C1008; conditions: for EC90: Baseline response 0 %, Maximum response 100 %, P-gp concentration 500 nM, P-gp inhibitor CP100356
# Zika virus [8] = assay: as §2, with “cells (cotreated with P-gp inhibitor, CP100356).” for “cells.”; type: organism-based, Chlorocebus sabaeus, Vero C1008; conditions: Zika virus, Vero C1008
smiles,measurement,setting,value
NCc1cccc(NC(=O)[C@@H](NC(=O)OCc2ccccc2)c2ccc(OCc3ccccc3)cc2)c1,EC50,dengue virus type 2 [1],> 18 µM
COc1cc(Cc2c(-c3ccc(F)cc3)noc2C)nc(N2CCNCC2)n1,EC50,dengue virus type 2 [1],> 18 µM
c1ccc2sc(C3CCN(Cc4c[nH]c5ccccc45)CC3)nc2c1,EC90,"Zika virus [2]; Baseline response 0 %, EC90 CI (lower) 0.007 uM, EC90 CI (upper) 47.388 uM, Hill slope -1.134, Maximum measured 126.957 %, Maximum response 50 %, Minimum measured 1.357 %, P-gp concentration 2 uM, R squared 0.32, P-gp inhibitor Elacidar",28.6 µM
same,EC50,"Zika virus [2]; Zika virus, VeroE6/TMPRSS2",2.33 µM
same,EC90,"Zika virus [2]; Zika virus, VeroE6/TMPRSS2, Baseline response 0 %, Hill slope -0.408, Maximum measured 80.807 %, Maximum response 100 %, Minimum measured 15.814 %, P-gp concentration 2 uM, R squared 0.363, P-gp inhibitor Elacidar",> 16.7 µM
same,EC50,Zika virus [2]; veroe6/tmprss2,4.11 µM
same,EC50,dengue virus type 2 [1],> 18 µM
same,EC90,"dengue virus type 2 [3]; Baseline response 0 %, EC90 CI (lower) 2.225 uM, EC90 CI (upper) 16.418 uM, Hill slope -4.495, Maximum measured 125.314 %, Maximum response 100 %, Minimum measured 8.4 %, P-gp concentration 2 uM, R squared 0.582, P-gp inhibitor Elacidar",16.1 µM
same,EC90,"dengue virus type 2 [3]; Dengue virus, VeroE6/TMPRSS2",16.6 µM
same,EC50,dengue virus type 2 [3]; veroe6/tmprss2,2.19 µM and 9.85 µM
CC[C@@H](Cc1nnn[nH]1)c1ccc(NC(=O)c2cc(Cl)cc(NC(=O)OCc3ccccc3)c2)cc1,EC50,"Zika virus [2]; Zika virus, VeroE6/TMPRSS2",1.93 µM
same,EC90,"Zika virus [2]; Zika virus, VeroE6/TMPRSS2",2.9 µM
same,EC50,dengue virus type 2 [4],> 5.56 µM
same,EC90,"dengue virus type 2 [4]; VeroE6/TMPRSS2, Baseline response 0 %, Hill slope -0.186, Maximum measured 93.084 %, Maximum response 100 %, Minimum measured 36.595 %, R squared 0.076",> 5.56 µM
same,EC50,Zika virus [5]; VeroE6/TMPRSS2,> 50 µM
same,EC90,Zika virus [5]; VeroE6/TMPRSS2,> 50 µM
same,EC50,Zika virus [6]; Vero C1008,> 50 µM
same,EC90,"Zika virus [6]; Vero C1008, Baseline response 0 %, Hill slope 5.649, Maximum measured 5.74 %, Maximum response 100 %, Minimum measured -1.447 %, R squared 0.24",> 50 µM
same,EC50,"dengue virus type 2 [7]; Dengue virus, Vero C1008",43.5 µM
same,EC90,"dengue virus type 2 [7]; Dengue virus, Vero C1008, Hill slope -24.458, Maximum measured 108.477 %, Minimum measured 3.247 %, R squared 0.952",47.6 µM
same,EC50,"dengue virus type 2 [3]; Dengue virus, VeroE6/TMPRSS2",10.4 µM
same,EC90,"dengue virus type 2 [3]; Dengue virus, VeroE6/TMPRSS2, Baseline response 0 %, Hill slope -0.442, Maximum measured 140.797 %, Maximum response 100 %, Minimum measured 47.356 %, P-gp concentration 2 uM, R squared 0.351, P-gp inhibitor Elacidar",> 16.7 µM
NCCc1cccc(NC(=O)[C@H]2[C@H]3CCCCC[C@H]3[C@H]2NC(=O)OCc2ccccc2)c1,EC50,"Zika virus [2]; Zika virus, VeroE6/TMPRSS2",1.51 µM
same,EC90,"Zika virus [2]; Zika virus, VeroE6/TMPRSS2",27.9 µM
same,EC50,dengue virus type 2 [4],> 1.85 µM
same,EC90,"dengue virus type 2 [4]; VeroE6/TMPRSS2, Maximum measured 147.779 %, Minimum measured 82.782 %",> 1.85 µM
same,EC50,Zika virus [5]; VeroE6/TMPRSS2,16.3 µM
same,EC90,"Zika virus [5]; VeroE6/TMPRSS2, Baseline response 0 %, Hill slope -67.816, Maximum measured 128.901 %, Maximum response 100 %, Minimum measured 6.251 %, R squared 0.855",16.9 µM
same,EC50,Zika virus [6]; Vero C1008,> 50 µM
same,EC90,"Zika virus [6]; Vero C1008, Baseline response 0 %, Hill slope 0.101, Maximum measured 6.245 %, Maximum response 100 %, Minimum measured -3.134 %, R squared 0.013",> 50 µM
same,EC50,"dengue virus type 2 [7]; Dengue virus, Vero C1008",8.83 µM
same,EC90,"dengue virus type 2 [7]; Dengue virus, Vero C1008, EC90 CI (lower) 4.071 uM, EC90 CI (upper) 8.838 uM, Hill slope -5.677, Maximum measured 107.479 %, Minimum measured 11.429 %, R squared 0.889",13 µM
same,EC50,"dengue virus type 2 [3]; Dengue virus, VeroE6/TMPRSS2",0.852 µM
same,EC90,"dengue virus type 2 [3]; Dengue virus, VeroE6/TMPRSS2, Baseline response 0 %, Hill slope -0.607, Maximum measured 105.284 %, Maximum response 100 %, Minimum measured 41.503 %, P-gp concentration 2 uM, R squared 0.471, P-gp inhibitor Elacidar",> 1.85 µM
Cc1ccc(NC(=O)c2cc(Cl)cc(NC(=O)OCc3ccccc3)c2)cc1CN,EC90,"Zika virus [2]; Zika virus, VeroE6/TMPRSS2, Maximum measured 108.754 %, Minimum measured 39.323 %, P-gp concentration 2 uM, P-gp inhibitor Elacidar",> 5.56 µM
same,EC90,"Zika virus [2]; Zika virus, VeroE6/TMPRSS2, Baseline response 0 %, Hill slope -0.897, Maximum measured 104.466 %, Maximum response 100 %, Minimum measured 2.423 %, P-gp concentration 2 uM, R squared 0.573, P-gp inhibitor Elacidar",> 5.56 µM
same,EC50,Zika virus [2]; veroe6/tmprss2,0.903 µM and > 5.56 µM
same,EC50,dengue virus type 2 [4],< 0.023 µM
same,EC90,"dengue virus type 2 [4]; VeroE6/TMPRSS2, Baseline response 0 %, Hill slope -0.25, Maximum measured 56.738 %, Maximum response 100 %, Minimum measured 21.854 %, R squared 0.324",> 5.56 µM
same,EC50,Zika virus [8],2.61 µM
same,EC90,"Zika virus [8]; Baseline response 0 %, Hill slope 6.556, Maximum measured 76.39 %, Maximum response 100 %, Minimum measured 1.967 %, P-gp concentration 500 nM, R squared 0.915, P-gp inhibitor CP100356",> 3.12 µM
same,EC50,Zika virus [5]; VeroE6/TMPRSS2,> 50 µM
same,EC90,"Zika virus [5]; VeroE6/TMPRSS2, Maximum measured 627.464 %, Minimum measured 75.729 %",> 50 µM
same,EC50,Zika virus [6]; Vero C1008,> 3.12 µM
same,EC90,"Zika virus [6]; Vero C1008, Baseline response 0 %, Hill slope 16.084, Maximum measured 41.192 %, Maximum response 100 %, Minimum measured -3.993 %, R squared 0.961",> 3.12 µM
same,EC90,"dengue virus type 2 [7]; EC90 CI (lower) 0 uM, EC90 CI (upper) Could not be calculated, confidence interval too large, Hill slope -15.095, Maximum measured 108.434 %, Minimum measured 1.527 %, R squared 0.917",3.71 µM
same,EC90,"dengue virus type 2 [7]; Hill slope -19.938, Maximum measured 107.168 %, Minimum measured 6.341 %, R squared 0.876",1.73 µM
same,EC50,dengue virus type 2 [7]; vero c1008,3.21 µM and 1.55 µM
same,EC50,"dengue virus type 2 [3]; Dengue virus, VeroE6/TMPRSS2",0.532 µM
same,EC90,"dengue virus type 2 [3]; Dengue virus, VeroE6/TMPRSS2, Baseline response 0 %, Hill slope -0.692, Maximum measured 108.544 %, Maximum response 100 %, Minimum measured 11.231 %, P-gp concentration 2 uM, R squared 0.808, P-gp inhibitor Elacidar",> 5.56 µM
Cc1[nH]c2ccccc2c1CN1CCC(c2c[nH]c3ncccc23)CC1,EC90,"Zika virus [2]; Baseline response 0 %, EC90 CI (lower) 0.367 uM, EC90 CI (upper) 8.175 uM, Hill slope -1.726, Maximum measured 163.583 %, Maximum response 100 %, Minimum measured 5.054 %, P-gp concentration 2 uM, R squared 0.694, P-gp inhibitor Elacidar",22.1 µM
same,EC90,"Zika virus [2]; Baseline response 0 %, Hill slope -0.27, Maximum measured 107.973 %, Maximum response 100 %, Minimum measured 29.852 %, P-gp concentration 2 uM, R squared 0.23, P-gp inhibitor Elacidar",> 10 µM
same,EC50,"Zika virus [2]; Zika virus, VeroE6/TMPRSS2",> 10 µM
same,EC50,Zika virus [2]; veroe6/tmprss2,6.19 µM
same,EC50,dengue virus type 2 [4],> 16.7 µM
same,EC90,"dengue virus type 2 [4]; VeroE6/TMPRSS2, Baseline response 0 %, Hill slope -0.265, Maximum measured 113.218 %, Maximum response 100 %, Minimum measured 41.507 %, R squared 0.203",> 16.7 µM
same,EC50,Zika virus [5]; VeroE6/TMPRSS2,13.1 µM
same,EC90,"Zika virus [5]; VeroE6/TMPRSS2, Baseline response 0 %, Hill slope -0.459, Maximum measured 94.623 %, Maximum response 100 %, Minimum measured 4.56 %, R squared 0.472",> 50 µM
same,EC50,Zika virus [6]; Vero C1008,6.51 µM
same,EC90,Zika virus [6]; Vero C1008,7.41 µM
same,EC50,"dengue virus type 2 [7]; Dengue virus, Vero C1008",7.05 µM
same,EC90,"dengue virus type 2 [7]; Dengue virus, Vero C1008, EC90 CI (lower) 3.837 uM, EC90 CI (upper) 5.899 uM, Hill slope -5.588, Maximum measured 107.944 %, Minimum measured 3.436 %, R squared 0.982",10.5 µM
same,EC90,"dengue virus type 2 [3]; Baseline response 0 %, Hill slope -0.694, Maximum measured 115.257 %, Maximum response 100 %, Minimum measured 6.241 %, P-gp concentration 2 uM, R squared 0.775, P-gp inhibitor Elacidar",> 16.7 µM
same,EC90,"dengue virus type 2 [3]; Dengue virus, VeroE6/TMPRSS2, Baseline response 0 %, Hill slope -0.066, Maximum measured 94.332 %, Maximum response 100 %, Minimum measured 44.366 %, P-gp concentration 2 uM, R squared 0.022, P-gp inhibitor Elacidar",> 10 µM
same,EC50,dengue virus type 2 [3]; veroe6/tmprss2,> 10 µM and 3.01 µM
